Source: US20240390471A1, “COMPOUNDS AND ADJUVANT FORMULATIONS USEFUL IN PNEUMOCOCCAL VACCINES” (Merck Sharp & Dohme LLC, priority 2023, published 2024)

Assays:
[1] = test system: S. pneumoniae serotypes of PCV13; settings: PCV13 plus 3M-052 compared to PCV13 alone; cited from earlier work
[2] = target: T1, human TLR7 (Homo sapiens, UniProt Q9NYK1); test: Cell-based TLR 7/8 assay, HEK-Blue TLR7 cells (SEAP reporter); settings: based on Compound concentration only; Compounds formulated as SNEs; read-out: huTLR7 EC50 (converted)
T1 construct: host or cells: HEK-Blue 293 cells expressing human TLR7
T1 sequence (Q9NYK1 27-1049): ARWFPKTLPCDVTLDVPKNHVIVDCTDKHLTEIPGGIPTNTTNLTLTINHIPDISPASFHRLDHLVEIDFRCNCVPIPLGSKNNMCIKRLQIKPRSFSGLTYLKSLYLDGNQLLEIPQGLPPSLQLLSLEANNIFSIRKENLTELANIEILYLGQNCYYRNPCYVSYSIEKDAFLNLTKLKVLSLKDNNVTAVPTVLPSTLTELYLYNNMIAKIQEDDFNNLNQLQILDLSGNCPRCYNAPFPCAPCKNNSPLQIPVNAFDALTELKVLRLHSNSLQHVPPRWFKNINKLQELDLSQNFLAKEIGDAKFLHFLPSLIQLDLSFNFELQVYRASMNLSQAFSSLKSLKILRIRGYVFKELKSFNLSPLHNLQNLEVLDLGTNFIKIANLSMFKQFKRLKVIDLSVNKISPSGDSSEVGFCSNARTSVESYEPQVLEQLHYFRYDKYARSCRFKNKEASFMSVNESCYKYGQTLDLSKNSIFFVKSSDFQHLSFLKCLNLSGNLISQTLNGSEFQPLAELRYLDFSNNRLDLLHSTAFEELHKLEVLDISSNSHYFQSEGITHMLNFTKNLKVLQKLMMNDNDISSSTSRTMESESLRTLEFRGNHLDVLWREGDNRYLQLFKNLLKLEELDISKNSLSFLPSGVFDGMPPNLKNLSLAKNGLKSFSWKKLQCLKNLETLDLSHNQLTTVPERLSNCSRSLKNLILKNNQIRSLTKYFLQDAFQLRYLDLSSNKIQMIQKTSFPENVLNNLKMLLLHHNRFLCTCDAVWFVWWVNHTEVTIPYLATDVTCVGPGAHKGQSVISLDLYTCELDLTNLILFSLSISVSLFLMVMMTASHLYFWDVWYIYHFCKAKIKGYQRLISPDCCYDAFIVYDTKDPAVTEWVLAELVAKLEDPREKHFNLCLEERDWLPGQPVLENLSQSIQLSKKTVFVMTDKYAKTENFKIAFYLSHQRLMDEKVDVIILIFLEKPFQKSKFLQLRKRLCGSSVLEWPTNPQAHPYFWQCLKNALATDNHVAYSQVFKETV
Procedure: (§1) HEK-Blue™ TLR7 and TLR8 cells (InvivoGen) were designed to assess the stimulation of TLR7 and TLR8 by monitoring the activation of NF-κB and AP-1. Compound B-1-SNE samples were diluted 1:2 across an 8-point titration in diluent buffer histidine/PS-20 in a sterile V-bottom plate. 20 μL of samples were transferred to corresponding wells of two flat bottom assay plates. Media was aspirated from HEK-Blue™ human TLR 7 and TLR 8 cells (T-75 flasks) and gently rinsed with pre-warmed (37° C.) DPBS for a total volume of 5 mL/flask. The DPBS was gently removed from the cells and cells were gently manually dislodged and resuspended in 2 mL of DPBS. Cell assay suspensions were then prepared at approximately 2.2×10^5 cells per mL of HEK-Blue™ detection medium (InvivoGen). 180 μL of cell suspension in detection medium was added to each well of the two flat bottom assay plates containing the diluted Compound B-1-SNE samples for a final dilution of sample equaling 1:10 (180 μL of cell suspension in detection medium and 20 μL of sample). The cells were then incubated at 37° C. in 5% CO2 for 20 hrs. The reporter gene, NF-Kb, induces the production of secreted embryonic alkaline phosphatase (SEAP) when stimulated and can be monitored using the vendor supplied SEAP detection kit. SEAP colorimetric changes were read at an absorbance of 640 nm using a SpectroMax Stakmax plate reader. […] EC50 values were calculated based on total Compound B-1-SNE concentration using GraphPad Prism Software and analyzed using agonist vs. response variable slope (four parameters) least squares fit.
(§2) Further to the description in Example 10, a cell-based activation system was used to assess activity of the Compound-formulated nanoemulsion systems, prepared as described in examples, supra. HEK-Blue™ TLR7 and TLR8 cells (InvivoGen) were designed to assess the stimulation of TLR7 and TLR8 by monitoring the activation of NF-κB and AP-1. Compound-SNE samples were diluted 1:2 across an 8-point titration in diluent buffer histidine/PS-20 in a sterile V-bottom plate. 20 μL of samples were transferred to corresponding wells of two flat bottom assay plates. Media was aspirated from HEK-Blue™ human TLR 7 and TLR 8 cells (T-75 flasks) and gently rinsed with pre-warmed (37° C.) DPBS for a total volume of 5 mL/flask. The DPBS was gently removed from the cells and cells were gently manually dislodged and resuspended in 2 mL of DPBS. Cell assay suspensions were then prepared at approximately 2.2×10^5 cells per mL of HEK-Blue™ detection medium (InvivoGen). 180 μL of cell suspension in detection medium was added to each well of the two flat bottom assay plates containing the diluted Compound-SNE samples for a final dilution of sample equaling 1:10 (180 μL of cell suspension in detection medium and 20 μL of sample). The cells were then incubated at 37° C. in 5% CO2 for 20 hrs. The reporter gene, NF-Kb, induces the production of secreted embryonic alkaline phosphatase (SLAP) when stimulated and can be monitored using the vendor supplied SLAP detection kit. SLAP colorimetric changes were read at an absorbance of 640 nm using a SpectroMax Stakmax plate reader. EC50s were calculated based on Compound concentration only, not total Compound-SNE concentration (Table 6) using GraphPad Prism Software and analyzed using agonist vs. response variable slope (four parameters) least squares fit.

[3] = target: T2, human TLR8 (Homo sapiens, UniProt Q9NR97); test: Cell-based TLR 7/8 assay, HEK-Blue TLR8 cells (SEAP reporter); settings: based on Compound concentration only; Compounds formulated as SNEs; read-out: huTLR8 EC50 (converted)
T2 construct: host or cells: HEK-Blue 293 cells expressing human TLR8
T2 sequence (Q9NR97 27-1041): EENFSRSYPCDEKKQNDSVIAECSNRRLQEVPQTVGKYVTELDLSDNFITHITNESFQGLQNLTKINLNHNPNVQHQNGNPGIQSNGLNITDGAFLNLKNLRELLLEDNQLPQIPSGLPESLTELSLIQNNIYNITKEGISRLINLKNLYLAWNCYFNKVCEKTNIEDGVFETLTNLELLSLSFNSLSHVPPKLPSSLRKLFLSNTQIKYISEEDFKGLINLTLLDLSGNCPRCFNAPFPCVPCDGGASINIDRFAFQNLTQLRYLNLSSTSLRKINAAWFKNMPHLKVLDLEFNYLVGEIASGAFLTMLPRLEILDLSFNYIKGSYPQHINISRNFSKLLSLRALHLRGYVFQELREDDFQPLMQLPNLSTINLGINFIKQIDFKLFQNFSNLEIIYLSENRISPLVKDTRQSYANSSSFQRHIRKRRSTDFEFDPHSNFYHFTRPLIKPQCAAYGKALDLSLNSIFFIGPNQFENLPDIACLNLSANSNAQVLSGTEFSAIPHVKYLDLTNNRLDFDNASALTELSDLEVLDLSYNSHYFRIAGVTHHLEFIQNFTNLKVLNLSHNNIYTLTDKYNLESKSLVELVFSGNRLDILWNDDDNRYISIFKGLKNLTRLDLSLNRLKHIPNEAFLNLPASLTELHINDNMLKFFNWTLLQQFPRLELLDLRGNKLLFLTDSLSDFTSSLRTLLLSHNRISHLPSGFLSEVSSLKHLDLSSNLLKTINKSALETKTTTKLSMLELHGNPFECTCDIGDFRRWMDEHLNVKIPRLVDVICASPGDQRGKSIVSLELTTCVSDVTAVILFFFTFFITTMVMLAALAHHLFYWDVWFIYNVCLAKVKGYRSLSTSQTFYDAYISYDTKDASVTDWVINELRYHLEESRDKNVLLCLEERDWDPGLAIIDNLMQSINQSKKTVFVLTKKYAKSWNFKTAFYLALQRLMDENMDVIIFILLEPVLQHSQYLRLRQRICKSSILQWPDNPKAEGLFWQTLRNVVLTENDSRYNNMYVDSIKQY
Procedure: as §1, §2

Row | SMILES | serotype specific antibody responses (binding titers and opsonophagocytic killing) [1] | EC50 [2] [µM] | EC50 [3] [µM]
1 | CCCCCCCCCCCCCCCCCC(=O)NCCCCOn1c(CCCC)nc2c(N)nc3ccccc3c21 [Compound 3M-052] | accelerated and enhanced serotype specific antibody responses |  | 
2 | CCCCCCCCCCCCCCCCNC(=O)[C@H]1C[C@@H](CC(=O)N2CCN(c3ccc(Cn4cc5nc(N)nc(NCCCC)c5n4)c(OC)c3)CC2)C1 [Compound B-10, (1s,3s)-3-(2-(4-(4-((5-amino-7-(butylamino)-2H-pyrazolo[4,3-d]pyrimidin-2-yl)methyl)-3-methoxyphenyl)piperazin-1-yl)-2-oxoethyl)-N-hexadecylcyclobutane-1-carboxamide] |  | 117 | 73.6
3 | CCCCCCCCCCCCCCCCCC(=O)NCCCNC(=O)C1CCN(c2ccc(Cn3cc4nc(N)nc(NCCCC)c4n3)c(OC)c2)CC1 [Compound B-8, 1-(4-((5-amino-7-(butylamino)-2H-pyrazolo[4,3-d]pyrimidin-2-yl)methyl)-3-methoxyphenyl)-N-(3-stearamidopropyl)piperidine-4-carboxamide] |  | 64.7 | 54
